Data set [1] in a line: Henry solubility constant Hcp at 293 K (mol/(m3 Pa)).
Data set [2] is described as follows: Henry solubility constant Hcp at 310 K (mol/(m3 Pa)).
The nature of data set [3]: Henry solubility constant Hcp at 298.15 K (mol/(m3 Pa)).
Setting [4] is: reference: Power and Stegall (1970).
Setting [5] is: reference: Chiang et al. (1998).
Setting [6] is: reference: Pearson and McConnell (1975).
[7] abbreviates: reference: Yurteri et al. (1987).
[8] abbreviates: reference: Bissonette et al. (1990).
The mark [9] stands for this setting: reference: Munz and Roberts (1987).
[10] abbreviates: reference: Tancrède and Yanagisawa (1990).
The mark [11] stands for this setting: reference: Warner et al. (1980).

Turning to `CCOCC` [diethyl ether], the “Henry solubility constant Hcp at 293 K” value in data set [1] (reference: Yu (1992)) amounted to 0.0033. Moreover, the “Henry solubility constant Hcp at 310 K” value in data set [2] (reference: Brody et al. (1971)) worked out at 0.0063; in data set [2] (reference: Eger et al. (1963)) it was 0.0051. For the same compound, the “Henry solubility constant Hcp” value in data set [3] (reference: Bachofen and Farhi (1971)) was 0.013; in data set [3] (reference: Nielsen et al. (1994)) it was 0.011; in data set [3] (reference: Ondo and Dohnal (2007)) it was 0.01; in data set [3] (reference: Signer et al. (1969)), 0.0078.
Take `[Ne]` [neon]: in data set [2] (setting [4]), the “Henry solubility constant Hcp at 310 K” value was determined as 4.3e-06. Moreover, the “Henry solubility constant Hcp” value in data set [3] (reference: Crovetto et al. (1982)) turned out to be 4.4e-06; in data set [3] (reference: Krause and Benson (1989)) it was 4.5e-06; in data set [3] (reference: Lannung (1930)) it was 4.6e-06; in data set [3] (reference: Morrison and Johnstone (1954)), 4.5e-06; in data set [3] (reference: von Antropoff (1910)) it was 6.6e-06.
As for `FS(F)(F)(F)(F)F` [sulfur hexafluoride], the “Henry solubility constant Hcp at 310 K” value in data set [2] (reference: Longo et al. (1970)) and in data set [2] (setting [4]) was 1.7e-06 each time. Further, the “Henry solubility constant Hcp” value in data set [3] (reference: Ashton et al. (1968)) amounted to 2.4e-06; in data set [3] (reference: Bullister et al. (2002)), 2.3e-06; in data set [3] (reference: Cosgrove and Walkley (1981)) it was 2.5e-06; in data set [3] (reference: Friedman (1954)) it was 2.2e-06; in data set [3] (reference: Park et al. (1982)), 2.4e-06.
In the case of `ClC(Cl)=C(Cl)Cl` [tetrachloroethene], the “Henry solubility constant Hcp at 293 K” value in data set [1] (setting [5]) is 0.00062; in data set [1] (setting [6]), 0.0005; in data set [1] (setting [7]), 0.00075. The “Henry solubility constant Hcp” value was determined as 0.00062 in data set [3] (setting [8]); 0.00062 in data set [3] (reference: Chen et al. (2012)); 0.00057 in data set [3] (reference: Ervin et al. (1980)); 0.0011 in data set [3] (reference: Gossett (1980)); 0.00056 in data set [3] (reference: Gossett (1987)); 0.00065 in data set [3] (reference: Gossett et al. (1985)). For the same compound, the “Henry solubility constant Hcp” value in data set [3] (reference: Knauss et al. (2000)) came to 0.00048; in data set [3] (reference: Lincoff and Gossett (1984)), 0.00057; in data set [3] (setting [9]) it was 0.00054; in data set [3] (reference: Park et al. (1997)), 0.00055; in data set [3] (reference: Peng and Wan (1997)), 0.00061; in data set [3] (reference: Peng and Wan (1998)), 0.00078. For the same compound, the “Henry solubility constant Hcp” value in data set [3] (reference: Robbins et al. (1993)) is 0.00058; in data set [3] (reference: Shimotori and Arnold (2003)), 0.00058; in data set [3] (setting [10]), 0.00059; in data set [3] (reference: Vane and Giroux (2000)) it was 0.0006; in data set [3] (setting [11]), 0.00034.
Regarding `ClC(Cl)(Cl)Cl` [tetrachloromethane], the “Henry solubility constant Hcp at 293 K” value in data set [1] (setting [5]) was determined as 0.0004; in data set [1] (setting [6]), 0.00045; in data set [1] (setting [7]), 0.00043. Further, the “Henry solubility constant Hcp” value in data set [3] (reference: Balls (1980)) was 0.00032; in data set [3] (setting [8]), 0.00028; in data set [3] (reference: Bullister and Wisegarver (1998)) it was 0.00029; in data set [3] (reference: Chen et al. (2012)), 0.0003; in data set [3] (reference: Gossett (1987)), 0.00033; in data set [3] (reference: Hartkopf and Karger (1973)) it was 0.00037. Also, the “Henry solubility constant Hcp” value was 0.00041 in data set [3] (reference: Hunter-Smith et al. (1983)); 0.00034 in data set [3] (reference: Lutsyk et al. (2005)); 0.00042 in data set [3] (reference: Munz and Roberts (1986)); 0.00033 in data set [3] (setting [9]); 0.00039 in data set [3] (reference: Park et al. (1997)); 0.00034 in data set [3] (setting [10]). In data set [3] (setting [11]), the “Henry solubility constant Hcp” value was found to be 0.00033.
Turning to `BrC(Br)Br` [tribromomethane], the “Henry solubility constant Hcp at 310 K” value in data set [2] (reference: Zhang et al. (2002)) was 0.0096. In addition, the “Henry solubility constant Hcp” value in data set [3] (reference: Khalfaoui and Newsham (1994a)) is 0.0085; in data set [3] (setting [9]), 0.018; in data set [3] (reference: Nicholson et al. (1984)), 0.016; in data set [3] (reference: Ruiz-Bevia and Fernandez-Torres (2010)) it was 0.02; in data set [3] (setting [11]), 0.019.
As for `[134Xe]` [xenon-133], the “Henry solubility constant Hcp at 310 K” value in data set [2] (reference: Ercan (1979)) was determined as 3.2e-05.
